Assay results reported in paper PMC3530535, “Crystal Structure of Proteus mirabilis Lipase, a Novel Lipase from the Proteus/Psychrophilic Subfamily of Lipase Family I.1” (PLoS ONE, 2012).

Molecular target: T1, Proteus mirabilis lipase (PML) (Proteus mirabilis, UniProt B4EVM3)
T1 construct: gene PMI0999; N-terminal hexahistidine tag (pET28a, plasmid pTK05), expressed in E. coli BL21Gold(DE3), Ni-NTA purified, tag removal not described
Test: X-ray crystal structure, […] A
Assay type: binding
Settings: covalent; diethyl adduct on Ser79 O-gamma; treated with 2 mM paraoxon, 0.6% Triton X100, 18 h, 25 °C, pH 7.5

T1 sequence (B4EVM3 entry or part of it): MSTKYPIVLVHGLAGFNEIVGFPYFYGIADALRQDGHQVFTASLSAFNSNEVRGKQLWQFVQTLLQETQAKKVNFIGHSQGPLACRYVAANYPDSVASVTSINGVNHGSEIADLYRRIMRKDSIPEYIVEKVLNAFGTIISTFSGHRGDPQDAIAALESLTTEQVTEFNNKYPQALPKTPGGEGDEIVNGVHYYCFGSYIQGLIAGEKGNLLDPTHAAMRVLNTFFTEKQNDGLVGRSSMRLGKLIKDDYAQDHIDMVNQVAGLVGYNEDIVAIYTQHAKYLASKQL

CCOP(=O)(OCC)Oc1ccc([N+](=O)[O-])cc1 [DEP, paraoxon]
X-ray crystal structure, 2.2 A: the small phosphonate inhibitor is covalently bound to the Oγ of S79
